pEC50: −log10 of the molar value.

The source of these data is US10537558B2 (Bantam Pharmaceutical, LLC, priority 2015, dated 2020).

The assay concerns BJAB cells. Nature of the assay: BJAB cell proliferation (Cell Titer Glo). Type of assay: cell-based. The note with it: Homo sapiens, read-out: EC50. Put shortly: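 EC50 values come from non-linear regression of luminescence (Cell Titer Glo), expressed relative to untreated wells. BJAB cells were incubated roughly 72 h at 37 °C with serial compound dilutions carrying 0.1% final DMSO.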
On the technique in general: In ATP-based viability assays light output follows the ATP content of the culture.
Usually pEC50 stands for the negative decadic logarithm of the EC50, by convention in mol/L. As to `Cc1nn(-c2nc(-c3ccc(C(F)(F)F)cc3)c(SC(C)C)s2)c(C(=O)NCCOCCOCCOCCN=[N+]=[N-])c1-c1cccc(F)c1` [Compound 249, N-(2-(2-(2-(2-azidoethoxy)ethoxy)ethoxy)ethyl)-4-(3-fluorophenyl)-1-(5-(isopropylthio)-4-(4-(trifluoromethyl)phenyl)thiazol-2-yl)-3-methyl-1H-pyrazole-5-carboxamide], the pEC50 was less than 4.70.
Take `COCCNC(=O)c1c(-c2cccc(F)c2)c(C)nn1-c1nc(-c2ccc(C(F)(F)F)cc2)c(SC(C)C)s1` [Compound 250, 4-(3-fluorophenyl)-1-(5-(isopropylthio)-4-(4-(trifluoromethyl)phenyl)thiazol-2-yl)-N-(2-methoxyethyl)-3-methyl-1H-pyrazole-5-carboxamide]: the pEC50 is 4.60 to 5.00.
With `CCCS(=O)(=O)NC(=O)c1c(-c2cccc(F)c2)c(C)nn1-c1nc(-c2ccc(C(F)(F)F)cc2)c(SC(C)C)s1` [Compound 251, 4-(3-fluorophenyl)-1-(5-(isopropylthio)-4-(4-(trifluoromethyl)phenyl)thiazol-2-yl)-3-methyl-N-(propylsulfonyl)-1H-pyrazole-5-carboxamide], the pEC50 was less than 4.70.
With `Cc1nn(-c2nc(-c3ccccc3C(F)(F)F)c(SC(C)C)s2)c(C(=O)O)c1-c1cccc(F)c1` [Compound 252, 4-(3-fluorophenyl)-1-(5-(isopropylthio)-4-(2-(trifluoromethyl)phenyl)thiazol-2-yl)-3-methyl-1H-pyrazole-5-carboxylic acid], the pEC50 is 4.60 to 5.00.
For the compound `Cc1nn(-c2nc(-c3cccc(C(F)(F)F)c3)c(SC(C)C)s2)c(C(=O)O)c1-c1cccc(F)c1` [Compound 253, 4-(3-fluorophenyl)-1-(5-(isopropylthio)-4-(3-(trifluoromethyl)phenyl)thiazol-2-yl)-3-methyl-1H-pyrazole-5-carboxylic acid], the pEC50 is 5.00 to 5.30.
As for `Cc1nn(-c2nc(-c3ccc(C(F)(F)F)cc3)c(NC(C)C)s2)c(C(=O)O)c1-c1cccc(F)c1` [Compound 254, 4-(3-fluorophenyl)-1-(5-(isopropylamino)-4-(4-(trifluoromethyl)phenyl)thiazol-2-yl)-3-methyl-1H-pyrazole-5-carboxylic acid], the pEC50 is 5.00 to 5.30.
Consider `Cc1nn(-c2nc(-c3ccc(S(F)(F)(F)(F)F)cc3)c(SC(C)C)s2)c(C(=O)O)c1-c1cccc(F)c1` [Compound 255, 4-(3-fluorophenyl)-1-(5-(isopropylthio)-4-(4-(pentafluoro-λ^6-sulfaneyl)phenyl)thiazol-2-yl)-3-methyl-1H-pyrazole-5-carboxylic acid], for which the pEC50 was greater than 6.00.
To `CONC(=O)c1c(-c2cccc(F)c2)c(C)nn1-c1nc(-c2ccc(C(F)(F)F)cc2)c(SC(C)C)s1` [Compound 256, 4-(3-fluorophenyl)-1-(5-(isopropylthio)-4-(4-(trifluoromethyl)phenyl)thiazol-2-yl)-N-methoxy-3-methyl-1H-pyrazole-5-carboxamide] belongs 4.60 to 5.00.
`Cc1nn(-c2nc(-c3ccc(CC(F)(F)F)cc3)c(SC(C)C)s2)c(C(=O)O)c1-c1cccc(F)c1` [Compound 257, 4-(3-fluorophenyl)-1-(5-(isopropylthio)-4-(4-(2,2,2-trifluoroethyl)phenyl)thiazol-2-yl)-3-methyl-1H-pyrazole-5-carboxylic acid]: the pEC50 is 5.30 to 6.00.
The figure for `Cc1nn(-c2nc(-c3ccc(C(F)(F)F)nc3)c(SC(C)C)s2)c(C(=O)O)c1-c1cccc(F)c1` [Compound 258, 4-(3-fluorophenyl)-1-(5-(isopropylthio)-4-(6-(trifluoromethyl)pyridin-3-yl)thiazol-2-yl)-3-methyl-1H-pyrazole-5-carboxylic acid] is 5.30 to 6.00; for `Cc1nn(-c2nc(-c3cnn(CC(F)(F)F)c3)c(SC(C)C)s2)c(C(=O)O)c1-c1cccc(F)c1` [Compound 259, 4-(3-fluorophenyl)-1-(5-(isopropylthio)-4-(1-(2,2,2-trifluoroethyl)-1H-pyrazol-4-yl)thiazol-2-yl)-3-methyl-1H-pyrazole-5-carboxylic acid] it is 4.60 to 5.00.
